Read-outs that look alike come from different tables or passages of the source.
Legend:
[1] = system: tamoxifen-resistent MCF-7 breast cancer xenografts; details: recent preclinical studies; cited from earlier work
uterus = details: tissue selective estrogenic effects; cited from earlier work
[2] = system: tamoxifen-sensitive cells lines; details: other studies; cited from earlier work
[3] = thermodynamic stability of polymorphs (DSC comparison); assay type: physicochemical
Protocol: Pipindoxifene hydrochloride monohydrate can also exist as form I polymorph. Sample data for certain physical properties are compared for form I and form II polymorphs below in Table 2.
DSC measurements were carried out in both sealed pan and vented pan at a scan rate of 10° C./min from 25° C. to 200° C. under nitrogen purge using a Pyris I DSC from Perkin-Elmer.

With `Cc1c(-c2ccc(O)cc2)n(Cc2ccc(OCCN3CCCCC3)cc2)c2ccc(O)cc12.Cl` [pipindoxifene, 2-(4-hydroxyphenyl)-3-methyl-1-[4-(2-piperidin-1-ylethoxy)-benzyl]-1H-indol-5-ol hydrochloride] as the molecule, how does the “growth of tamoxifen-resistant MCF-7 breast cancer xenografts” value [1] read?
The value was “inhibited the growth”.

What about the uterotropic activity (uterus) of the same molecule?
Its uterotropic activity is “little or no uterotropic activity”.

What about the “effectiveness in tamoxifen-sensitive cell lines” value [2] of the same molecule?
Its value is “effectiveness”.

With `Cc1c(-c2ccc(O)cc2)n(Cc2ccc(OCCN3CCCCC3)cc2)c2ccc(O)cc12.Cl` [form II, pipindoxifene hydrochloride monohydrate] as the molecule, how does the “thermodynamic stability of crystalline polymorph” value [3] read?
The value was “Less thermodynamically stable”.

For `Cc1c(-c2ccc(O)cc2)n(Cc2ccc(OCCN3CCCCC3)cc2)c2ccc(O)cc12.Cl` [Form I, pipindoxifene hydrochloride monohydrate], which “thermodynamic stability of crystalline polymorph” value ([3]; form I versus form II, from Table 2 DSC data, hydrochloride monohydrate) is on record?
Its value is “thermodynamically more stable than form II”.
